Marks after values point to notes of the source that are not given here.
Assays:
α1β3γ2 GABAA receptors = α1β3γ2 GABAA receptors (Rattus norvegicus, UniProt P18508+P62813); assay: Two-electrode voltage clamp in Xenopus oocytes, α1β3γ2; type: cell-based; conditions: whole range of in vivo free brain concentrations obtained
Wistar rats [1] = assay: Intravenous pentylenetetrazole infusion test; type: in vivo, rat
Wistar rats [2] = assay: Grip strength; type: in vivo, rat; conditions: for Grip strength, peak force of experimenter's pull necessary to overcome the animal's grip: 20 min before testing
[3] = test system: 50 other receptor and enzyme assays; assay: NIMH PDSP screen, 50 other receptor and enzyme assays
α2β3γ2 GABAA receptors = α2β3γ2 GABAA receptors (Rattus norvegicus, UniProt P18508+P23576); assay: Two-electrode voltage clamp in Xenopus oocytes, α2β3γ2; type: cell-based
Wistar rats [4] = assay: Rotarod test; type: in vivo, rat
non-α5GABAARs = assay: Two-electrode voltage clamp in Xenopus oocytes, non-α5 receptors; type: cell-based, rat; conditions: 100 nM effective concentration
α5β3γ2S GABAA receptors = α5β3γ2S GABAA receptors (Rattus norvegicus, UniProt P18508+P19969); assay: 3H-flunitrazepam competition binding, α5β3γ2S
α3β3γ2 GABAA receptors = α3β3γ2 GABAA receptors (Rattus norvegicus, UniProt P18508+P20236); assay: Two-electrode voltage clamp in Xenopus oocytes, α3β3γ2; type: cell-based
[5] = In vitro hydrolytic stability study in rat plasma; type: in vitro ADME; conditions: for Total plasma concentration (in vitro metabolic stability): rat plasma 37 °C
α5β3γ2 GABAA receptors = α5β3γ2 GABAA receptors (Rattus norvegicus, UniProt P18508+P19969); assay: Two-electrode voltage clamp in Xenopus oocytes, α5β3γ2; type: cell-based; conditions: concentrations approaching 100 nM; GABA EC3-5
[6] = Pharmacokinetic study, plasma and brain concentrations after i.p. injection
α1β3γ2S GABAA receptors = α1β3γ2S GABAA receptors (Rattus norvegicus, UniProt P18508+P62813); assay: 3H-flunitrazepam competition binding, α1β3γ2S
α2β3γ2S GABAA receptors = α2β3γ2S GABAA receptors (Rattus norvegicus, UniProt P18508+P23576); assay: 3H-flunitrazepam competition binding, α2β3γ2S
Wistar rats [7] = assay: Amphetamine induced locomotor activity; type: in vivo, rat; conditions: 1, 2.5 and 10 mg/kg i.p.
Wistar rats [8] = assay: Elevated plus maze; type: in vivo, rat; conditions: 1 mg/kg to 10 mg/kg i.p., 5 min
α3β3γ2S GABAA receptors = α3β3γ2S GABAA receptors (Rattus norvegicus, UniProt P18508+P20236); assay: 3H-flunitrazepam competition binding, α3β3γ2S
[9] = Plasma protein and brain tissue binding; type: in vitro ADME, rat; conditions: rat
[10] = only at concentrations of about 100 nM and above
[11] = rat i.p., MP-III-022 2.5 mg/kg vs SH-053-2′F-R-CH3 10 mg/kg

In the case of `C#Cc1ccc2c(c1)C(c1ccccc1F)=N[C@H](C)c1c(C(=O)NC)ncn1-2` [MP-III-022, (R)-8-Ethynyl-6-(2-fluorophenyl)-N,4-dimethyl-4H-benzo[f]imidazo[1,5-a][1,4]diazepine-3-carboxamide], the “Modulatory actions at α1-containing GABAA receptors” value (α1β3γ2 GABAA receptors) is reported as “lacked modulatory actions”, the “PTZ test, threshold dose of PTZ required to elicit seizures” value (Wistar rats [1]; 1 mg/kg i.p.) is reported as 60.99 ± 6.11 mg/kg PTZ and the “PTZ test, threshold dose of PTZ required to elicit seizures” value (Wistar rats [1]; 10 mg/kg i.p.) is reported as 50.99 ± 3.72 mg/kg PTZ. For the same compound, the “PTZ test, effect of treatment (one-way ANOVA)” value (Wistar rats [1]; 1 and 10 mg/kg i.p.) was “did not show a statistically significant effect”, the “Grip strength, peak force of experimenter's pull necessary to overcome the animal's grip” value (“Grip strength, peak force” below) (Wistar rats [2]; 1 mg/kg i.p.) was 2.57 ± 0.08 kg/kg and the “Grip strength, peak force” value (Wistar rats [2]; 2.5 mg/kg i.p.) was 2.41 ± 0.28 kg/kg. The “Grip strength, peak force” value (Wistar rats [2]; 10 mg/kg i.p.) was 1.94 ± 0.22^b,d kg/kg, the “Grip strength, peak force” value (Wistar rats [2]; 15 mg/kg i.p.) was 1.86 ± 0.16^a kg/kg and the “Grip strength, peak force” value (Wistar rats [2]; 20 mg/kg i.p.) was 1.78 ± 0.16^c,d kg/kg. For the same compound, the “Dose at which the first muscle relaxant effect was observed” value (Wistar rats [2]; i.p., grip strength) was 10 mg/kg, the “Activity in 50 other receptor and enzyme assays” value [3] was “negligible activity” and the “Estimated potentiation at α2GABAARs” value (α2β3γ2 GABAA receptors; after the 15 mg/kg dose) was 225%. The “Estimated potentiation at α2GABAARs” value (α2β3γ2 GABAA receptors; after the 20 mg/kg dose) was 280%, the “Estimated potentiation at α2GABAARs” value (α2β3γ2 GABAA receptors; after the dose of 10 mg/kg) was 138% and the “Modulatory activity at α2-containing receptors” value (α2β3γ2 GABAA receptors; [10]) was “weakly modulatory”. The “Rotarod, time remaining on the rod revolving at 15 rpm” value (shortened to “Rotarod, time remaining”) (Wistar rats [4]; 10 mg/kg i.p.) was 180 s, the “Rotarod, time remaining” value (Wistar rats [4]; 15 mg/kg MP-III-022 in combination with 20 mg/kg XLi-093, i.p.) was 74.61 ± 34.03 s and the “Rotarod, time remaining” value (Wistar rats [4]; 15 mg/kg i.p.) was 69.09 ± 25.58 s. The “Rotarod, time remaining” value (Wistar rats [4]; 20 mg/kg i.p.) was 6.67 ± 4.81 s, the “Effects (potentiation) on non-α5GABAARs” value (non-α5GABAARs) was at most 150% and the Ki (α5β3γ2S GABAA receptors) was 55 ± 17 nM. For the same compound, the “Selectivity in binding to α5GABAARs compared to α1-containing GABAA receptors” value (α5β3γ2S GABAA receptors; ratio of Ki values) was 15 fold, the “Selectivity in binding to α5GABAARs compared to α2-containing GABAA receptors” value (α5β3γ2S GABAA receptors; ratio of Ki values) was 6 fold and the “Selectivity in binding to α5GABAARs compared to α3-containing GABAA receptors” value (α5β3γ2S GABAA receptors; ratio of Ki values) was 12 fold. For the same compound, the “Estimated potentiation at α3GABAARs” value (α3β3γ2 GABAA receptors; after the 15 mg/kg dose) was 175%, the “Estimated potentiation at α3GABAARs” value (α3β3γ2 GABAA receptors; after the 20 mg/kg dose) was 200% and the “Modulatory activity at α3-containing receptors” value (α3β3γ2 GABAA receptors; [10]) was “weakly modulatory”. The “Total plasma concentration (in vitro metabolic stability)” value (shortened to “Total plasma concentration”) ([5]; 0 min) was 0.5556 µM, the “Total plasma concentration” value ([5]; 30 min) was 0.5402 ± 0.0146 µM and the “Total plasma concentration” value ([5]; 60 min) was 0.5403 ± 0.0193 µM. For the same compound, the “Total plasma concentration” value ([5]; 120 min) was 0.5472 ± 0.0007 µM, the “Total plasma concentration” value ([5]; 240 min) was 0.5374 ± 0.0063 µM and the “In vitro metabolic stability during incubation in rat plasma” value ([5]; rat, plasma) was “excellent in vitro metabolic stability”. For the same compound, the remaining at 0 h, 0.2 μg/ml ([5]; rat, plasma) was 100%, the remaining at 0.5 h, 0.2 μg/ml ([5]; rat, plasma) was 97.2% and the remaining at 1 h, 0.2 μg/ml ([5]; rat, plasma) was 97.2%. For the same compound, the remaining at 2 h, 0.2 μg/ml ([5]; rat, plasma) was 98.5%, the remaining at 4 h, 0.2 μg/ml ([5]; rat, plasma) was 96.7% and the “Potentiation at α5β3γ2” value (α5β3γ2 GABAA receptors) was “above 300%”. For the same compound, the “Brain AUC (0 to 180 min) relative to SH-053-2′F-R-CH3” value [6, 11] was 1.75 fold, the “Plasma AUC (0 to 180 min) relative to SH-053-2′F-R-CH3” value [6, 11] was 2 fold and the “Brain free (estimated) concentration” value ([6]; rat, 1 mg/kg i.p., 20 min) was 6.38 ± 0.80 nmol/kg. For the same compound, the “Brain free (estimated) concentration” value ([6]; rat, 2.5 mg/kg i.p., 20 min) was 10.34 ± 3.33 nmol/kg, the Brain total concentration ([6]; rat, 2.5 mg/kg i.p., 20 min) was 156.46 ± 50.33 nmol/kg and the “Brain free (estimated) concentration” value ([6]; rat, 10 mg/kg i.p., 20 min) was 68.12 ± 18.38 nmol/kg. The Brain total concentration ([6]; rat, 10 mg/kg i.p., 20 min) was 1030.52 ± 278.03 nmol/kg, the “Brain free (estimated) concentration” value ([6]; rat, 15 mg/kg i.p., 20 min) was 317.57 ± 186.52 nmol/kg and the Brain total concentration ([6]; rat, 15 mg/kg i.p., 20 min) was 4804.44 ± 2821.77 nmol/kg. For the same compound, the “Brain free (estimated) concentration” value ([6]; rat, 20 mg/kg i.p., 20 min) was 559.57 ± 58.58 nmol/kg, the Brain total concentration ([6]; rat, 20 mg/kg i.p., 20 min) was 8465.45 ± 886.18 nmol/kg and the concentration at 20 min ([6]; rat, plasma, ip, 1 mg/kg, Plasma total concentration, 1 mg/kg i.p., 20 min) was 62.4 ± 4.97 nM. The Ki (α1β3γ2S GABAA receptors) was 850 ± 110 nM, the Ki (α2β3γ2S GABAA receptors) was 360 ± 56 nM and the “Estimated free concentration as % of Ki value for α2GABAARs” value (α2β3γ2S GABAA receptors; after the dose of 10 mg/kg) was 19%. The “Locomotor activity during 20 min before amphetamine treatment” value (Wistar rats [7]) was “did not show any effect of treatment”, the “Influence on amphetamine's effects (hyperlocomotion, 0.5 mg/kg amphetamine)” value (Wistar rats [7]; 60 min) was “lack of influence” and the “Elevated plus maze, closed and total arm entries” value (Wistar rats [8]) was “did not affect”. The “Elevated plus maze, percent of open arm entries” value (Wistar rats [8]) was “did not affect”, the “Elevated plus maze, percent of open arm time” value (Wistar rats [8]) was “did not affect” and the “Elevated plus maze, total distance traveled” value (Wistar rats [8]) was “did not affect”. It also gave a Ki (α3β3γ2S GABAA receptors) of 660 ± 170 nM, a fraction unbound ([9]; brain tissue) of 0.0661 and a fraction unbound ([9]; plasma) of 0.135.

Reference: PMC5107132 (European journal of pharmacology, 2016)
